Results on four compounds are retold here after paper PMC10888562 (International Journal of Molecular Sciences, 2024).

Where two headings read alike, the source gives them in different places. Bounds are passed on as bounds.

The subject of data set [1] is non-tumour-derived MCF10A breast line. Set-up: method as in PMID 36142383, PMID 37173934, PMID 36296713. The conditions noted are these: cited from earlier work.
Data set [2] relates to multiple human cell lines. Set-up: method as in PMID 36142383, PMID 37173934, PMID 36296713. The conditions noted are these: average over all cell lines; cited from earlier work.
Data set [3] deals with MCF-7 breast. On the set-up: method as in PMID 36142383, PMID 37173934, PMID 36296713. Conditions: cited from earlier work.
The subject of the next data set is HT29 colon. On the set-up: method as in PMID 36142383, PMID 37173934, PMID 36296713. The conditions noted are these: cited from earlier work.
For a further data set, the system named is HT29 colon cells. The experiment in a line: TMRE mitochondrial membrane potential (MtMP) assay. The class given is cell-based, human. Conditions: GI50 drug concentration (FCCP 20 μM). The protocol:
This was achieved by determining if the overproduction of ROS induced by these complexes impacts mitochondrial activity by altering MtMP. Briefly, there is evidence showing a strong correlation between increased levels of ROS and mitochondrial impairment. […] The MtMP changes recorded are measured as RFU. […] To investigate the MtMP changes in HT29 treated cells, a TMRE-MtMP Assay Kit (Abcam, Cambridge, MA, USA) was used, as previously described. In 96-well plates, 25,000 cells/mL of HT29 colon cells in DMEM were seeded. Cells were treated with a GI50 drug concentration for each complex. At 24, 48 or 72 h, cells were washed with PBS and stained with tetramethylrhodamine, ethyl ester (TMRE) (1 μM) and incubated for 30 min. TMRE was then removed, and cells were then re-washed with PBS (0.2% BSA), after which phenol red free media was added. The plates were directly scanned to measure fluorescence (expressed as RFU), using the Glo-Max®-Multimode microplate reader (Promega Corporation, Alexandra, VIC, Australia) at an excitation/emission of 549/575 nm. For the positive control, 20 μM carbonyl cyanide 4-(trifluoromethoxy) phenylhydrazone (FCCP)) was added to the cells and incubated for 10 min. The cells were washed with PBS (0.2% BSA) and stained with TMRE (1 μM) for 30 min; this was removed, and phenol red free media was added, and the final solution was scanned as mentioned above.

The subject of data set [4] is Du145 prostate. On the set-up: method as in PMID 36142383, PMID 37173934, PMID 36296713. Conditions: cited from earlier work.
For data set [5], the system named is cisplatin-resistant ADDP ovarian variant. Set-up: method as in PMID 36142383, PMID 37173934, PMID 36296713. Conditions: cited from earlier work.
The test system of the next data set is U87 glioblastoma. Set-up: method as in PMID 36142383, PMID 37173934, PMID 36296713. Conditions: cited from earlier work.
In another data set the test system is A431 skin. On the set-up: method as in PMID 36142383, PMID 37173934, PMID 36296713. Conditions: cited from earlier work.
The subject of data set [6] is H460 lung. The data set is described as follows: MTT cell viability assay (GI50), H460. The class given is cell-based, human. Conditions: for SCI: GI50 (MCF10A)/GI50 (H460); for GI50: H460 lung, MTT. Background: Formazan colour is commonly taken as a measure of viable cells.
The test system of data set [7] is BE2-C neuroblastoma. The data set is described as follows: MTT cell viability assay (GI50), BE2-C. The class given is cell-based, human. The conditions noted are these: for SCI: GI50 (MCF10A)/GI50 (BE2-C); for GI50: BE2-C neuroblastoma, MTT.
Another data set relates to SJ-G2 glioblastoma. Set-up: method as in PMID 36142383, PMID 37173934, PMID 36296713. The conditions noted are these: cited from earlier work.
The test system of data set [8] is H460 lung. Set-up: method as in PMID 36142383, PMID 37173934, PMID 36296713. Conditions: cited from earlier work.
In another data set the test system is MIA pancreas. Set-up: method as in PMID 36142383, PMID 37173934, PMID 36296713. Conditions: cited from earlier work.
The subject of a further data set is A2780 ovarian. Set-up: method as in PMID 36142383, PMID 37173934, PMID 36296713. The conditions noted are these: cited from earlier work.
Data set [9] deals with BE2-C neuroblastoma. Set-up: method as in PMID 36142383, PMID 37173934, PMID 36296713. The conditions noted are these: cited from earlier work.
For data set [10], the system named is cisplatin-resistant ADDP ovarian variant. The experiment in a line: MTT cell viability assay (GI50), ADDP. Conditions: for SCI: GI50 (MCF10A)/GI50 (ADDP); for GI50: cisplatin-resistant ADDP ovarian variant, MTT. The class given is cell-based, human.
Data set [11] relates to MCF-7 breast. The data set is described as follows: MTT cell viability assay (GI50), MCF-7. In kind it is cell-based, human. Conditions: for SCI: GI50 (MCF10A)/GI50 (MCF-7); for GI50: MCF-7 breast, MTT.
The test system of data set [12] is non-tumour-derived MCF10A breast line. The conditions noted are these: for GI50: MCF10A non-tumour-derived breast, MTT.
Data set [13] concerns Du145 prostate. The data set is described as follows: MTT cell viability assay (GI50), Du145. The class given is cell-based, human. Conditions: for fold more potent than carboplatin / fold more potent than cisplatin / fold more potent than oxaliplatin: GI50 ratio; for GI50: MTT; for SCI: GI50 (MCF10A)/GI50 (Du145).
For data set [14], the system named is multiple human cell lines. The data set is described as follows: MTT cell viability assay, all cell lines (mean/range of GI50). In kind it is cell-based. Conditions: for fold decrease of average GI50 relative to the platinum(IV) scaffold: average GI50 of scaffold vs 5B3A derivative, all cell lines; for GI50: average over all cell lines.
A short description of the next data set: Solubility in d.i.H2O. Conditions: room temperature. In kind it is physicochemical. How it is done: The solubility of P-5B3A, 5-5B3A and 56-5B3A was tested in d.i.H2O at room temperature. Small aliquots of d.i.H2O were titrated into an Eppendorf tube containing 1 mg of each complex until full dissolution. For every titration, each sample solution was vortexed and sonicated.

In the case of `N.N.[Cl][Pt][Cl]` [Cisplatin, cis-diammineplatinum(II) dichloride], the concentration for 50% growth inhibition (GI50) is 5200 ± 520 nM in [1]; 5840 ± 610 nM in data set [2]; 6500 ± 800 nM in the data set with MCF-7 breast [3]; 11300 nM in the data set on HT29 colon; 1200 ± 100 nM with Du145 prostate [4]; 28000 nM in data set [5]. Besides, the 50% growth inhibitory concentration (GI50) in the data set with U87 glioblastoma is 3800 ± 1100 nM; in the data set with A431 skin, 2400 ± 300 nM; in the data set with SJ-G2 glioblastoma, 400 ± 100 nM; with H460 lung [8], 900 ± 200 nM; in the data set on MIA pancreas, 7500 ± 1300 nM; in the data set on A2780 ovarian, 1000 ± 100 nM. For the same compound, the concentration for 50% growth inhibition (GI50) with BE2-C neuroblastoma [9] is 1900 ± 200 nM. Moreover, the “MtMP Changes” value with HT29 colon cells (24 h, control 542 ± 4) amounted to 232 ± 4 RFU; in the data set on HT29 colon cells (48 h, control 507 ± 11) it was 230 ± 4 RFU; with HT29 colon cells (72 h, control 449 ± 10) it was 192 ± 7 RFU. Besides, the SCI with H460 lung [6] turned out to be 5.78; with BE2-C neuroblastoma [7], 2.74; in data set [10] it was 0.19; with MCF-7 breast [11] it was 0.80.
“[Pt^IV(5,6-Me2phen)(SS-DACH)(5B3A)(OH)]^2+ [56-5B3A]”: the concentration for 50% growth inhibition (GI50) in data set [12] was determined as 3.3 ± 0.9 nM; with Du145 prostate [13] (Du145 prostate), 1.2 ± 0.6 nM; in [14], 42 ± 7 nM; in the data set on H460 lung [6], 7.8 ± 2.2 nM; with BE2-C neuroblastoma [7], 150 ± 24 nM; in data set [10], 6 ± 3 nM. This compound also displayed a concentration for 50% growth inhibition (GI50) in the data set on MCF-7 breast [11] of 68 ± 10 nM. For the same compound, the “fold more potent than 56MESS” value was 0.3 fold in the data set on Du145 prostate [13] (Du145 prostate) and 0.5 fold in data set [10] (ADDP). Also, the “fold more potent than carboplatin” value in the data set with Du145 prostate [13] (Du145 prostate) was ≥ 12,500 fold. In the data set on Du145 prostate [13] (Du145 prostate), the “fold more potent than cisplatin” value turned out to be 1000 fold. Also, the “fold more potent than oxaliplatin” value in the data set with Du145 prostate [13] (Du145 prostate) was “at least 2400 fold”. The SCI stood at 2.75 in the data set with Du145 prostate [13]; 0.42 in the data set with H460 lung [6]; 0.02 in the data set with BE2-C neuroblastoma [7]; 0.55 in [10]; 0.05 in the data set on MCF-7 breast [11]. Further, the “MtMP Changes” value with HT29 colon cells (24 h, control 542 ± 4) is listed as 321 ± 11 RFU; in the data set with HT29 colon cells (48 h, control 507 ± 11), 267 ± 8 RFU; in the data set on HT29 colon cells (72 h, control 449 ± 10), 148 ± 7 RFU. Besides, in data set [14], the “fold decrease of average GI50 relative to the platinum(IV) scaffold” value was 3.6 fold. In the data set “Solubility in d.i.H2O”, this compound registered a Solubility of 4000 µg/mL.
With “[Pt^IV(5-Mephen)(SS-DACH)(5B3A)(OH)]^2+ [5-5B3A]”, the 50% growth inhibitory concentration (GI50) in data set [12] came to 19 ± 1.5 nM; in the data set on Du145 prostate [13] (Du145 prostate) it was 10 ± 2 nM; in [14], 104 ± 12 nM; with H460 lung [6], 30 ± 3 nM; in the data set on BE2-C neuroblastoma [7] it was 340 ± 40 nM; in data set [10], 23 ± 0.88 nM. Further, the concentration for 50% growth inhibition (GI50) in the data set on MCF-7 breast [11] is 200 ± 21 nM. Besides, in the data set on Du145 prostate [13] (Du145 prostate), the “fold more potent than carboplatin” value came out at 1500 fold. Moreover, the “fold more potent than cisplatin” value with Du145 prostate [13] (Du145 prostate) is 120 fold; in [10] (ADDP, GI50 ratio) it was roughly 1220 fold. In addition, the “fold more potent than oxaliplatin” value in the data set on Du145 prostate [13] (Du145 prostate) was found to be 290 fold. Moreover, the SCI stood at 1.90 in the data set with Du145 prostate [13]; 0.63 in the data set on H460 lung [6]; 0.06 in the data set with BE2-C neuroblastoma [7]; 0.83 in [10]; 0.10 in the data set with MCF-7 breast [11]. Also, the “MtMP Changes” value in the data set with HT29 colon cells (24 h, control 542 ± 4) was determined as 324 ± 9 RFU; in the data set on HT29 colon cells (48 h, control 507 ± 11), 280 ± 12 RFU; in the data set with HT29 colon cells (72 h, control 449 ± 10) it was 184 ± 4 RFU. For the same compound, the “fold lower average GI50 than 5MESS” value in data set [14] (average GI50, all cell lines) is given as “approximately 0.9 fold”. Further, in [14], the “fold decrease of average GI50 relative to the platinum(IV) scaffold” value came to 4 fold. For the same compound, in the data set “Solubility in d.i.H2O”, the Solubility is 6000 µg/mL.
As for “[Pt^IV(phen)(SS-DACH)(5B3A)(OH)]^2+ [P-5B3A]”, the “fold difference in cytotoxicity versus PHENSS” value in [12] came to 0.9 fold. Besides, the concentration for 50% growth inhibition (GI50) in [12] was 280 ± 39 nM; in the data set on Du145 prostate [13] (Du145 prostate), 190 ± 23 nM; in [14], 2080 ± 703 nM; in the data set on H460 lung [6] it was 430 ± 50 nM; in the data set with BE2-C neuroblastoma [7], 13000 nM; in [10] it was 330 ± 8.8 nM. For the same compound, in the data set on MCF-7 breast [11], the concentration for 50% growth inhibition (GI50) was 5400 ± 2800 nM. For the same compound, the SCI with Du145 prostate [13] is on record as 1.47; in the data set on H460 lung [6] it was 0.65; with BE2-C neuroblastoma [7] it was 0.02; in data set [10] it was 0.85; in the data set on MCF-7 breast [11], 0.05. Besides, the “MtMP Changes” value came out at 332 ± 7 RFU with HT29 colon cells (24 h, control 542 ± 4); 317 ± 7 RFU in the data set with HT29 colon cells (48 h, control 507 ± 11); 263 ± 5 RFU in the data set on HT29 colon cells (72 h, control 449 ± 10). Moreover, the “fold larger average GI50 than 5-5B3A” value in data set [14] (average GI50, all cell lines) stood at 20 fold. Moreover, the “fold larger average GI50 than 56-5B3A” value in data set [14] (average GI50, all cell lines) is given as 50 fold. In addition, in [14], the “fold decrease of average GI50 relative to the platinum(IV) scaffold” value is recorded as roughly 1.6 fold. The “fold more potent than carboplatin” value in data set [10] (ADDP, GI50 ratio) is 152 fold. Also, the “fold more potent than cisplatin” value in data set [10] (ADDP, GI50 ratio) is on record as “at least 85 fold”. In addition, the Solubility in “Solubility in d.i.H2O” came to 7000 µg/mL.

Broadly, the GI50 is the concentration that inhibits growth by half. Usually Solubility stands for the concentration that dissolves in the medium under given conditions. A low value points to little dissolved substance.
